Measurements taken from US8648116B2, “Derivatives of N-(arylamino) sulfonamides including polymorphs as inhibitors of MEK as well as compositions, methods of use and methods for preparing the same” (Ardea Biosciences, Inc., priority 2005, dated 2014).

Experiments:
[1] = system: MDA-MB231 cells; assay: Anchorage-independent growth inhibition (MTS, 7 days); assay type: cell-based, human
[2] = Pharmacokinetics in cancer patients following multiple doses; details: 6 mg

Structure (SMILES): COc1cc(F)c(F)c(Nc2ccc(I)cc2F)c1NS(=O)(=O)C1(C[C@H](O)CO)CC1
- GI50 ([1]; MDA-MB231, anchorage independent): 81 nM
- anchorage independent growth (FIG. 12C) ([1]; MDA-MB231 cells): inhibition of MDA-M8231 cells
- Rac AUCτ (accumulation index) [2]: 2.07
